7 molecules from the supplement of paper PMC8671470 can be followed below.

± gives the standard deviation of the averaged measurements.

In general, cell viability refers to a read-out of living cells in per cent, often relative to untreated cells.

This experiment deals with HL-60. The experiment can be described thus: cell viability (% survival relative to DMSO control); higher = less cytotoxic. Conditions: 72 h. The method, boiled down: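 A rescreen of the full library used HL-60 cells in RPMI 1640 with 10% FBS on 384-well plates, run in duplicate at five tenfold concentrations (1–10,000 nM). Each screen included DMSO or 100 nM of one of three metabolic inhibitors and ran 72 h at 37 °C, 5% CO2. CellTiter-Glo viability was scaled between DMSO and 10 μM proteasome-inhibitor wells. Any area under the curve comes from four-parameter log-logistic fits with drc and PharmacoGx.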

[1] abbreviates: 0.001 µM, co-treatment: AZD3965 100 nM.
The mark [2] stands for this setting: 0.001 µM, co-treatment: DMSO vehicle.
[3] abbreviates: 0.001 µM, co-treatment: GSK2194069 100 nM.
Where [4] appears, read: 0.001 µM, co-treatment: pictilisib 100 nM.
The mark [5] stands for this setting: 0.01 µM, co-treatment: AZD3965 100 nM.
Where [6] appears, read: 0.01 µM, co-treatment: DMSO vehicle.
Setting [7] is: 0.01 µM, co-treatment: GSK2194069 100 nM.
[8] abbreviates: 0.01 µM, co-treatment: pictilisib 100 nM.
Setting [9] is: 0.1 µM, co-treatment: AZD3965 100 nM.
Where [10] appears, read: 0.1 µM, co-treatment: DMSO vehicle.
The mark [11] stands for this setting: 0.1 µM, co-treatment: GSK2194069 100 nM.
Where [12] appears, read: 0.1 µM, co-treatment: pictilisib 100 nM.
Where [13] appears, read: 1 µM, co-treatment: AZD3965 100 nM.
[14] abbreviates: 1 µM, co-treatment: DMSO vehicle.
Where [15] appears, read: 1 µM, co-treatment: GSK2194069 100 nM.
Setting [16] is: 1 µM, co-treatment: pictilisib 100 nM.
[17] abbreviates: 10 µM, co-treatment: AZD3965 100 nM.
The mark [18] stands for this setting: 10 µM, co-treatment: DMSO vehicle.
[19] abbreviates: 10 µM, co-treatment: GSK2194069 100 nM.
The mark [20] stands for this setting: 10 µM, co-treatment: pictilisib 100 nM.

Take `O=C(COc1ccc(C(=O)c2ccccc2)cc1)NC1CCN(Cc2ccccc2)CC1` [AdipoRon]: the cell viability runs as follows: under setting [1], 101 ± 1.2%; under setting [2], 99.7 ± 4.2%; under setting [3], 105 ± 6.7%; under setting [4], 97.7 ± 7.3%; under setting [5], 99.9 ± 9.8%; under setting [6], 100.3 ± 0.47%. Besides, the cell viability under setting [7] was 103 ± 5.5%; the cell viability under setting [8] amounted to 104 ± 8%; the cell viability under setting [9] stood at 106 ± 2%; the cell viability under setting [10] turned out to be 104 ± 5.3%; the cell viability under setting [11] was determined as 101 ± 3.1%; the cell viability under setting [12] turned out to be 97.7 ± 3.8%. Further, the cell viability under setting [13] turned out to be 98.45 ± 0.62%; the cell viability under setting [14] stood at 80.8 ± 30%; the cell viability under setting [15] was 92.1 ± 7.6%; the cell viability under setting [16] is 92.4 ± 10%; the cell viability under setting [17] was 105 ± 3.6%; the cell viability under setting [18] is 105 ± 5.4%. The cell viability under setting [19] turned out to be 93.3 ± 6.3% and the cell viability under setting [20] came to 91.2 ± 1.6%.
Consider `COc1cc2c(NC3CCN(C)CC3)nc(N3CCCN(C)CC3)nc2cc1OCCCN(C)C` [UNC0224], for which the cell viability is, setting by setting: under setting [1], 102 ± 2.2%; under setting [2], 104 ± 2.2%; under setting [3], 114 ± 13%; under setting [4], 101 ± 1.9%; under setting [5], 101 ± 5.6%; under setting [6], 103 ± 7.6%. The cell viability reads like this: under setting [7], 113 ± 31%; under setting [8], 108 ± 0.28%; under setting [9], 100 ± 1.5%; under setting [10], 102 ± 6.9%; under setting [11], 96.8 ± 5.5%; under setting [12], 102 ± 9.6%. Further, the cell viability is 99.416 ± 0.052% under setting [13]; 101 ± 1.8% under setting [14]; 96.3 ± 3.7% under setting [15]; 103 ± 1.8% under setting [16]; 95.6 ± 0.11% under setting [17]; 93.3 ± 4.4% under setting [18]. The cell viability was determined as 91.9 ± 6.9% under setting [19] and 74.8 ± 9.6% under setting [20].
Consider `C[C@]12CC[C@H](O)CC1=CC[C@@H]1[C@@H]2CC[C@]2(C)C(c3cccnc3)=CC[C@@H]12` [Abiraterone], for which the cell viability under setting [1] was 109 ± 10%; the cell viability under setting [2] worked out at 97.8 ± 1.5%; the cell viability under setting [3] is 106.3 ± 0.78%; the cell viability under setting [4] came to 104 ± 14%; the cell viability under setting [5] amounted to 103 ± 1.9%; the cell viability under setting [6] is 98 ± 2.3%. Besides, the cell viability is 96.1 ± 4.2% under setting [7]; 102 ± 8% under setting [8]; 93.4 ± 14% under setting [9]; 93.1 ± 11% under setting [10]; 86.9 ± 16% under setting [11]; 84.9 ± 22% under setting [12]. Further, the cell viability under setting [13] is 100.2 ± 0.73%; the cell viability under setting [14] was determined as 97.9 ± 1.7%; the cell viability under setting [15] was 107 ± 11%; the cell viability under setting [16] was found to be 99.5 ± 8.8%; the cell viability under setting [17] was found to be 103 ± 5.8%; the cell viability under setting [18] turned out to be 105 ± 5.8%. Besides, the cell viability is, setting by setting: under setting [19], 105 ± 8.8%; under setting [20], 108 ± 1.3%.
On to `Cc1c(-c2ccccc2)oc2c(C(=O)OCCN3CCCCC3)cccc2c1=O.Cl` [Flavoxate], for which the cell viability runs as follows: under setting [1], 90.8 ± 13%; under setting [2], 99.7 ± 1.6%; under setting [3], 82.5 ± 21%; under setting [4], 98.6 ± 1%; under setting [5], 101.5 ± 0.24%; under setting [6], 100 ± 1.1%. Moreover, the cell viability under setting [7] turned out to be 101 ± 2.1%; the cell viability under setting [8] came out at 105 ± 3.5%; the cell viability under setting [9] was found to be 109 ± 9.9%; the cell viability under setting [10] worked out at 104 ± 2.8%; the cell viability under setting [11] came to 105 ± 11%; the cell viability under setting [12] was 110 ± 16%. Besides, the cell viability by setting is: under setting [13], 103 ± 3.7%; under setting [14], 95.5 ± 12%; under setting [15], 98.1 ± 9.8%; under setting [16], 101 ± 9.9%; under setting [17], 97.1 ± 5.2%; under setting [18], 98.8 ± 0.023%. Also, the cell viability under setting [19] turned out to be 91.7 ± 8% and the cell viability under setting [20] was 91.7 ± 10%.
Consider `Sc1ncnc2nc[nH]c12` [6-mercaptopurine], for which the cell viability under setting [1] is 101.3 ± 0.71%; the cell viability under setting [2] was 104 ± 1.1%; the cell viability under setting [3] came to 99.93 ± 0.86%; the cell viability under setting [4] turned out to be 102 ± 1.8%; the cell viability under setting [5] is 102.8 ± 0.97%; the cell viability under setting [6] is 98.8 ± 7%. For the same molecule, the cell viability runs as follows: under setting [7], 106 ± 2.9%; under setting [8], 108 ± 6.8%; under setting [9], 96.3 ± 2%; under setting [10], 97.9 ± 2.4%; under setting [11], 95.62 ± 0.77%; under setting [12], 91.2 ± 1%. Further, the cell viability worked out at 101.2 ± 0.68% under setting [13]; 102 ± 4.9% under setting [14]; 89.8 ± 13% under setting [15]; 98.3 ± 10% under setting [16]; 23.9 ± 2% under setting [17]; 35.1 ± 1.3% under setting [18]. Also, the cell viability by setting is: under setting [19], 35.9 ± 3%; under setting [20], 32.6 ± 0.66%.
Regarding `CCOC(=O)[C@H]1O[C@@H]1C(=O)N[C@@H](CC(C)C)C(=O)NCCC(C)C` [Aloxistatin], the cell viability amounted to 100 ± 1.1% under setting [1]; 102 ± 6% under setting [2]; 102 ± 11% under setting [3]; 106 ± 11% under setting [4]; 101 ± 4.6% under setting [5]; 104 ± 7.9% under setting [6]. The cell viability reads like this: under setting [7], 106 ± 15%; under setting [8], 115 ± 19%; under setting [9], 98 ± 5.8%; under setting [10], 100 ± 1.2%; under setting [11], 95.8 ± 2.5%; under setting [12], 100 ± 6.3%. Besides, the cell viability by setting is: under setting [13], 97.6 ± 3.7%; under setting [14], 100 ± 1.4%; under setting [15], 92.5 ± 11%; under setting [16], 106 ± 5.1%; under setting [17], 103 ± 6.2%; under setting [18], 99.7 ± 2.7%. Further, the cell viability is 115 ± 23% under setting [19] and 99.7 ± 3.2% under setting [20].
For `OCCN1CCN(CCCN2c3ccccc3Sc3ccc(Cl)cc32)CC1` [Perphenazine], the cell viability under setting [1] turned out to be 101 ± 1.7%; the cell viability under setting [2] stood at 105 ± 2.5%; the cell viability under setting [3] was 98.1 ± 2.6%; the cell viability under setting [4] was found to be 99.74 ± 0.41%; the cell viability under setting [5] came to 99.4 ± 5.2%; the cell viability under setting [6] amounted to 102 ± 1.6%. For the same molecule, the cell viability reads like this: under setting [7], 101 ± 11%; under setting [8], 105 ± 2%; under setting [9], 107 ± 5.8%; under setting [10], 105 ± 4.4%; under setting [11], 95.1 ± 16%; under setting [12], 107 ± 8.5%. Moreover, the cell viability reads like this: under setting [13], 98.6 ± 1.1%; under setting [14], 103.72 ± 0.059%; under setting [15], 97.5 ± 15%; under setting [16], 109 ± 5.6%; under setting [17], 86.3 ± 7%; under setting [18], 91.3 ± 5.4%. For the same molecule, the cell viability runs as follows: under setting [19], 55.4 ± 12%; under setting [20], 61.7 ± 8%.
